Measured values as given in patent US9956242B2, “Pharmaceutical composition for prevention or treatment of cognitive function disorders comprising spinosin” (MINISTRY OF FOOD AND DRUG SAFETY, priority 2011, dated 2018).
Like-named read-outs stand apart in the source and are kept apart here.

Columns and labels:
[1] = test system: mice with memory impairment induced by scopolamine; test: Passive avoidance test 2 (zizyphi spinosi semen extract), scopolamine-induced memory impairment; type: in vivo, ICR mice; details: control group 1, donepezil 5 mg/Kg, scopolamine 1 mg/Kg i.p.
Experimental: (§1) 6-week-old ICR mice (Orient Bio Inc., Korea), weighing about 26 to 28 g, were fed with water and food freely available for 5 days in an environment, where the temperature was about 23±2° C., the humidity was about 55±10%, and the light-dark cycle was 12 hours (Animal Laboratory at the College of Pharmacy in Kyung Hee university), and used in the experiments.
After 30 minutes, learning about the passive avoidance test apparatus was performed on the mice in drug administration groups 1 to 4 and control groups 1 to 3, respectively. Specifically, the mice were placed in the first space kept light, and after a seek time of about 20 seconds, the guillotine door was opened, and the latency time taken for the mice to move to the second space kept dark was measured.
After 24 hours since the learning was completed, the present experiment was performed on drug administration groups 1 to 4 and control groups 1 to 3, respectively. The latency tire taken for all four feet of the mouse to enter the dark space after the guillotine door was opened from the seek time of 10 seconds was measured up to 300 seconds. […]

[2] = test system: mice with memory impairment induced by scopolamine; details: for Present Experiment latency time: 24 hours after learning; for Learning latency time: learning trial; for latency time increase compared to control group 2 (scopolamine only): present experiment
[3] = test system: mice with memory impairment induced by scopolamine; test: Morris water maze test, scopolamine-induced memory impairment; type: in vivo, ICR mice; details: control group 1, donepezil 5 mg/Kg, scopolamine 1 mg/Kg i.p.
Experimental: as §1
A Morris water maze test apparatus was prepared for the experiment. Four labels such as star, square, triangle, and circle were put at regular intervals on a circular pool of 90 cm in diameter and 45 cm in height, and a platform of 29 cm in height was positioned below the star. Water was filled up to 0.5 cm from the platform (water temperature: 21±1° C.) and became cloudy with pigment such that the platform was not visible from the surface of the water.
160 mg of the zizyphi spinosi semen extract of Example 1 was dissolved in 4 mL of 10% Tween 80 (Polyoxyethylene sorbitan monooleate: Sigma, U.S.A.) and administered to drug administration groups 1 and 2 at doses of 100 mg/Kg and 200 mg/Kg. Meanwhile, donepezil (Sigma-Aldrich Chemistry Co.) was administered to control group 1 at a dose of 5 mg/Kg, and 10% Tween 80 was administered to control groups 2 and 3 at a dose of 0.15 mL.
After 30 minutes, the time taken for the mice, put down in one section of the pool, in drug administration groups 1 and 2 and control groups 1 to 3 to reach the platform was measured for 60 seconds. After 30 minutes, the time taken for the mice, repositioned to the original position, to reach the platform was measured until 60 seconds. The above-described process was repeated 4 times, and the average values were obtained. The experiment was performed in the same manner as on the first day while administering the drugs for 4 days, except that the position where the mice were first put down was changed.

[4] = test system: mice with memory impairment induced by scopolamine; test: Y-maze test, scopolamine-induced memory impairment; type: in vivo, ICR mice; details: control group 1, donepezil 5 mg/Kg; scopolamine 1 mg/Kg i.p.
Experimental: as §1
A Y-maze was prepared for the experiment. The Y-maze had three arms, in which each arm was 42 cm in length, 3 cm in width, and 12 cm in height, the angle formed by three arms was 120 degrees, and the Y-maze was made of black polyvinyl resin.
160 mg of the zizyphi spinosi semen extract of Example 1 was dissolved in 4 mL of 10% Tween 80 (Polyoxyethylene sorbitan monooleate: Sigma, U.S.A.) and administered to drug administration groups 1 and 2 at doses of 100 mg/Kg and 200 mg/Kg. […]
After 30 minutes, the mice in drug administration groups 1 and 2 and control groups 1 to 3 were carefully placed on one of three arms of the Y-maze, divided into A, B, and C, respectively, and allowed to freely move, and then the arms where the mice entered were recorded. At this time, only the case where the mouse’ tail fully entered the arm was recorded as the arm where the experimental animal entered, and the case where the mouse entered the same arm was also recorded. […]

[5] = control group 1, donepezil 5 mg/Kg, scopolamine 1 mg/Kg i.p.

SMILES: COc1cc2c(cc1OC)C(=O)C(CC1CCN(Cc3ccccc3)CC1)C2 (stereo not drawn) [donepezil]
- Present Experiment latency time ([1]; 24 hours after learning): 140.5 ± 25.47 s
- Learning latency time ([1]; learning trial): 17.25 ± 5.365 s
- Present Experiment latency time [2, 5]: 151.9 ± 37.24 s
- Learning latency time [2, 5]: 25.13 ± 13.68 s
- Time to reach the platform ([3]; 1st day): 59.34 ± 2.055 s
- Time to reach the platform ([3]; 2nd day): 48.75 ± 14.98 s
- Time to reach the platform ([3]; 3rd day): 42.80 ± 15.16 s
- Time to reach the platform ([3]; 4th day): 34.35 ± 13.80 s
- Alternation behavior (%) [4]: 65.71 ± 10.19%
- Total entry (total number of arm entries) [4]: 34.75 ± 7.265

SMILES: COc1cc2oc(-c3ccc(O)cc3)cc(=O)c2c(O)c1[C@@H]1O[C@H](CO)[C@@H](O)[C@H](O)[C@H]1O[C@@H]1O[C@H](CO)[C@@H](O)[C@H](O)[C@H]1O [spinosin, 6-(2-O-beta-D-Glocopyranosyl-beta-D-glucopyranosyl)-5-hydroxy-2-(4-hydroxyphenyl)-7-methoxy-4H-1-benzopyran-4-one]
- latency time increase compared to control group 2 (scopolamine only) ([2]; 2.5 mg/Kg): about 20 seconds
- Learning latency time ([2]; 2.5 mg/Kg, scopolamine 1 mg/Kg i.p. 30 min later): 25.88 ± 13.72 s
- Present Experiment latency time ([2]; 2.5 mg/Kg, scopolamine 1 mg/Kg i.p., measured up to 300 seconds): 59.13 ± 46.88 s
- latency time increase compared to control group 2 (scopolamine only) ([2]; 5 mg/Kg): about 2.5 times
- Learning latency time ([2]; 5 mg/Kg, scopolamine 1 mg/Kg i.p. 30 min later): 29.38 ± 18.17 s
- Present Experiment latency time ([2]; 5 mg/Kg, scopolamine 1 mg/Kg i.p., measured up to 300 seconds): 107.1 ± 91.70 s
- latency time increase compared to control group 2 (scopolamine only) ([2]; 10 mg/Kg): about 3 times
- Learning latency time ([2]; 10 mg/Kg, scopolamine 1 mg/Kg i.p. 30 min later): 20.50 ± 9.196 s
- Present Experiment latency time ([2]; 10 mg/Kg, scopolamine 1 mg/Kg i.p., measured up to 300 seconds): 131.3 ± 69.94 s
- latency time increase compared to control group 2 (scopolamine only) ([2]; 20 mg/Kg): about 3.5 times
- Learning latency time ([2]; 20 mg/Kg, scopolamine 1 mg/Kg i.p. 30 min later): 36.00 ± 16.45 s
- Present Experiment latency time ([2]; 20 mg/Kg, scopolamine 1 mg/Kg i.p., measured up to 300 seconds): 146.0 ± 83.53 s
- latency time compared to control group 2 (in words) ([2]; drug administration groups 1 to 4, 2.5 to 20 mg/Kg): significantly increased
- memory and learning ability compared to control group 1 (donepezil) (in words) ([2]; drug administration groups 3 and 4, 10 and 20 mg/Kg): improved to an extent similar to that in control group 1
